Each structure is given as a SMILES string. “Also recorded” adds a separate entry of the source.

What all share (assay type): in vivo, mouse
For one data set, the system named is NAMPT cone-CKO mice. Nature of the data set: ERG rescue in NAMPT cone-CKO mice. To be noted: NMN i.p. From the text: The inventors examined the effect of selectively disrupting NAD biosynthesis within PR. The inventors utilized the cre-lox strategy to generate mice that had NAMPT conditionally deleted from either rods (NAMPT rod-CKO) or cones (NAMPT cone-CKO). The NAMPT fl/fl mice as well as the rhodopsin-cre and cone opsin-cre mice have been previously characterized. Both rod and cone cko mice are generated with normal Mendelian frequencies and are born normal with no observable systemic abnormalities (data not shown). All structural and functional analyses performed in CKO mice are analyzed in comparison to littermate controls. Rods constitute a majority of the PR neurons (97% of all photoreceptors). […] Neurosensory retinal degeneration was associated with secondary atrophy and pallor of the optic nerve (FIG. 29C).
These quantifiable structural and functional changes were associated with decrease in visual acuity in cone-CKO mice (FIG. 30E). Histopathologic analyses confirmed outer nuclear layer degeneration with subsequent multilayer retinal degeneration and cell death in cone-CKO mice similar to the changes seen above for rod-CKO mice. […] NMN treatment had no effect on littermate controls (FIG. 33A-B). […] Furthermore, providing NMN treatment is able to rescue PR neurons and vision.

Another data set has as its system NSPCs. Nature of the data set: NSPC pool in the dentate gyrus after long-term NMN in drinking water. Here is the method: All tissue sections were and cells incubated in blocking/permeabilization solution containing 10% normal goat serum, 1% BSA, and 0.3% Triton-X in PBS for 45 to 60 min prior to 24 or 48 h of incubation with primary antibodies in 5% normal goat serum and 0.1% Triton-X in PBS at 4° C. at the concentrations listed below. […], Alexa488, or Cy3 conjugated-secondary antibodies diluted in 2% normal goat serum, 1% BSA, and 0.1% Triton-X in PBS were added for 2 h at room temperature. Nuclei were stained with 4,6-diamidino-2-phenylindole (Sigma) for 10 min at room temperature.
Cells were harvested by fixation with 4% paraformaldehyde in PBS (15 min). Mice were anesthetized by i.p. injection of ketamine and xylazine, and perfused transcardially through left ventricle with cold 0.1 M phosphate buffer at pH 7.4 followed by a phosphate-buffered solution of 4% paraformaldehyde (PFA). Brains were postfixed with 4% PFA overnight and placed into 15% sucrose followed by 30% sucrose, frozen, and stored at −80° C. until use. Coronal sections (30 μm) were made by cryostat in a 1 in 8 series and stored at −30° C. in cryoprotectant until use. To remove any endogenous peroxidase activity, all sections were incubated with 3% H2O2 for 10 min. […]
For tissue sections, high-magnification (20×, 0.8DICII or 40× oil 1.3DICII) microscopic imaging was performed using a Zeiss Axioimage.Z1. […] Quantification was performed blinded to genotype on 3-8 tissue sections per animal. Cell densities were estimated by the number of immunoreactive cells divided by the area of the structure, measured with ImageJ. […] Quantification was performed blinded to genotype on 2 to 3 fields of view per sample and treatment, from 3 to 9 independent samples.
The inventors hypothesized that systemic administration of NMN may be able to correct age-associated defects in NSPC functionality. […] Quantification of Ki67+ (H) and Dcx+ (I) cells in the DG per unit area of the DG (n=5). […]

Data set [1] in a line: Contextual and cued fear conditioning tests in HFD-fed mice. On the procedure:
Two groups of wild-type C57BL/6 mice at […] of age were fed a high fat diet (HFD) containing 42% of the total calories from fat (TD88137; Harlan Taklad). NMN at a dose of 300 mg/kg/day began to be administered through drinking water to one of the HFD-fed groups after 4 months of HFD feeding. The control group was fed a regular chow. After 8 months of HFD feeding with or without 4 months of NMN treatment, the contextual fear conditioning test, a sensitive test to examine the memory function that involves the hippocampus, was conducted for mice in these three groups.
FIG. 10 illustrates freezing responses of regular chow-fed control, HFD-fed, and HFD-fed, NMN-treated mice in contextual and cued fear conditioning tests on Day 1, Day 2 and Day3. NMN was administered at the dose of 300 mg/kg/day for 4 months. On Day 1 of the study, mice were given an auditory cue and then a mild electric foot shock, and a time of freezing was analyzed individually. On Day 2, the trained mice were placed into a training chamber with no tone cues, and their freezing responses were evaluated. […] The results were analyzed by one-way ANOVA with unweighted quadratic term. All values are presented as mean±SEM (n=17, 15, and 12 for regular chow-fed control, HFD-fed, and HFD-fed, NMN-treated mice, respectively). **P<0.01; *P<0.05.

Setting [2] is: NMN in drinking water from 6 to 18 months of age.

On to `NC(=O)c1ccc[n+]([C@@H]2O[C@H](COP(=O)([O-])O)[C@@H](O)[C@H]2O)c1` [NMN, nicotinamide mononucleotide], for which, in the data set with NAMPT cone-CKO mice, the “effect on littermate controls” value is listed as “no effect”. For the same compound, the ERG function result in the data set with NAMPT cone-CKO mice (vs PBS treated cone-CKO mice) is on record as “improve ERG function”. In the data set with NSPCs (300 mg/kg body weight in drinking water from 6 to 18 months of age), the “Type 1 (radial Nestin+) NSPC population with age” value was “improved maintenance; also recorded: able to maintain the NSPC pool”. For the same compound, in the data set with NSPCs (setting [2]), the “population of newborn neurons (Dcx+) in the DG” value was “trended to increase” and the “population of proliferating cells (Ki67+) in the DG” value is “remained similar to controls”. Besides, the “freezing responses, conditioning session and cued fear conditioning” value in data set [1] (Day 1 and Day 3, NMN 300 mg/kg/day for 4 months) is recorded as “did not differ from those of control mice”. The “freezing responses, contextual fear conditioning test” value in data set [1] (Day 2, NMN 300 mg/kg/day for 4 months) is listed as “indistinguishable from those of regular chow-fed control mice”.

The record behind these values is patent US11793824B2, “Administration of nicotinamide mononucleotide in the treatment of disease” (Washington University, priority 2013, dated 2023).
